According to patent US10144690B2, “1,2-diphenylethylene glycol compounds for combating aging of the skin, and cosmetic use thereof” (L'OREAL, priority 2014, dated 2018):

Test system: phospho-AMPK (Thr-172) (p-AMPK)
Experiment: p-AMPK expression by Western blotting in normal human epidermal keratinocytes (p-AMPK/GAPDH ratio relative to control)
Format: cell-based
Settings: test compound 1 μM, 12 hours incubation
Procedure: Normal human epidermal keratinocytes are seeded at 180 000 cells per well and cultured in SFM culture medium (supplier Gibco) supplemented with 0.25 ng/ml EGF, 25 μg/ml of pituitary extract and 25 μg/ml gentamicin, up to confluence, and incubated in a humid oven at 37° C. and 5% CO2. The culture medium was then replaced with test medium (SFM (Gibco) supplemented with 25 μg/ml gentamicin) containing or not containing (control) the test compounds, the combinations or the reference (AICAR—(5-amino-4-imidazolecarboxamide riboside) at 500 μM). The cells were then incubated for 12 hours.
The level of expression of p-AMPK was analyzed by Western blotting.
At the end of the incubation, the proteins were extracted and quantified and then separated by electrophoresis on 10% polyacrylamide gel and then transferred onto a nitrocellulose membrane.
Between each successive revelation, the antibodies were detached using a “stripping” buffer. The images were acquired with a Fuji LAS 3000 chemiluminescence scanner (Fujifilm) and the densitometric analyses were performed using the Multigauge software (Fujifilm).
An increase in the phosphorylated form of AMPK (active form of the enzyme) relative to the control is evaluated in this test.
Expressed in the form of the p-AMPK/GAPDH ratio relative to the control (100%): […]

First: COc1ccc([C@@H](O)[C@H](O)c2ccc(OC)cc2)cc1 [Compound 1]
Second: COc1ccc(C(O)[C@H](O)c2ccc(OC)cc2)cc1 (stereo partly drawn) [Compound 2]
The “p-AMPK/GAPDH ratio relative to the control (100%)” value of the first is higher: 133% for the first, 94% for the second.

Compared with `COc1cc(C(O)C(O)c2ccc(O)c(OC)c2)ccc1O` (stereo not drawn) [Compound 3], `Oc1ccc(C(O)C(O)c2cc(O)cc(O)c2)cc1` (stereo not drawn) [Compound 4] is higher in “p-AMPK/GAPDH ratio relative to the control (100%)” value: 112% for the first, 132% for the second.

Same assay, conditions: test compound 10 μM, 12 hours incubation

Going from `COc1ccc([C@@H](O)[C@H](O)c2ccc(OC)cc2)cc1` [Compound 1] to `COc1ccc(C(O)[C@H](O)c2ccc(OC)cc2)cc1` (stereo partly drawn) [Compound 2], the “p-AMPK/GAPDH ratio relative to the control (100%)” value falls from 171% to 134%.

First: COc1cc(C(O)C(O)c2ccc(O)c(OC)c2)ccc1O (stereo not drawn) [Compound 3]
Second: Oc1ccc(C(O)C(O)c2cc(O)cc(O)c2)cc1 (stereo not drawn) [Compound 4]
The “p-AMPK/GAPDH ratio relative to the control (100%)” value of the first is higher: 147% for the first, 140% for the second.

Same assay, conditions: test compound 100 μM, 12 hours incubation

Going from `COc1ccc([C@@H](O)[C@H](O)c2ccc(OC)cc2)cc1` [Compound 1] to `COc1ccc(C(O)[C@H](O)c2ccc(OC)cc2)cc1` (stereo partly drawn) [Compound 2], the “p-AMPK/GAPDH ratio relative to the control (100%)” value falls from 198% to 149%.

First: COc1cc(C(O)C(O)c2ccc(O)c(OC)c2)ccc1O (stereo not drawn) [Compound 3]
Second: Oc1ccc(C(O)C(O)c2cc(O)cc(O)c2)cc1 (stereo not drawn) [Compound 4]
The “p-AMPK/GAPDH ratio relative to the control (100%)” value of the first is lower: 158% for the first, 159% for the second.
